{"source": "patent US9695155B2", "about": "“Herbicidal substituted pyrimidinyloxy benzene compounds” (E. I. DU PONT DE NEMOURS AND COMPANY, priority 2013, dated 2017)", "key": {"rice": {"tested_on": "rice", "assay": "Test C flooded paddy test", "type": "in vivo, Oryza sativa", "conditions": "Flood, scale 0 to 100 (0 no effect, 100 complete control), 13 to 15 days", "how_it_was_run": "(§1)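 Compound was added to standing water 3 cm above soil, flood maintained, and plants held in a greenhouse before visual scoring against controls at 13 to 15 days.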"}, "sedge, umbrella": {"tested_on": "sedge, umbrella", "assay": "Test C flooded paddy test", "type": "in vivo, Cyperus difformis", "conditions": "Flood, scale 0 to 100 (0 no effect, 100 complete control), 13 to 15 days", "how_it_was_run": "as §1"}, "barnyardgrass": {"tested_on": "barnyardgrass", "assay": "Test C flooded paddy test", "type": "in vivo, Echinochloa crus-galli", "conditions": "Flood, scale 0 to 100 (0 no effect, 100 complete control), 13 to 15 days", "how_it_was_run": "as §1"}, "corn": {"tested_on": "corn", "assay": "Test E preemergence", "type": "in vivo, Zea mays", "conditions": "for Corn plant response rating: scale 0 to 100 (0 no effect, 100 complete control)", "from_the_text": "(§2) Seeds of plant species selected from corn (Zea mays), soybean (Glycine max), velvetleaf (Abutilon theophrasti), lambsquarters (Chenopodium album), wild poinsettia (Euphorbia heterophylla), palmer pigweed (Amaranthus palmeri), waterhemp (common waterhemp, Amaranthus rudis), surinam grass (Brachiaria decumbens), large (Lg) crabgrass (Digitaria sanguinalis), Brazilian crabgrass (Digitaria horizontalis), fall panicum (Panicum dichotomiflorum), giant foxtail (Setaria faberii), green foxtail (Setaria viridis), goosegrass (Eleusine indica), johnsongrass (Sorghum halepense), ragweed (common ragweed, Ambrosia elatior), barnyardgrass (Echinochloa crus-galli), sandbur (southern sandbur, Cenchrus echinatus), arrowleaf sida (Sida rhombifolia), Italian ryegrass (Lolium multiflorum), dayflower (Virginia (VA) dayflower, Commelina virginica), field bindweed (Convolvulus arvensis), morningglory (Ipomoea coccinea), nightshade (eastern black nightshade, Solanum ptycanthum), kochia (Kochia scoparia), yellow nutsedge (Cyperus esculentus), cocklebur (common cocklebur, Xanthium strumarium), smartweed (ladysthumb smartweed, and hairy beggarticks (Bidens pilosa), were planted into a silt loam soil and treated preemergence with test chemicals formulated in a non-phytotoxic solvent mixture which included a surfactant.\n(§3) At the same time, plants from these crop and weed species and also horseweed (Canada horseweed, Conyza canadensis), waterhemp_RES1, (ALS & Triazine resistant common waterhemp, Amaranthus rudis), and waterhemp_RES2, (ALS & HPPD resistant common waterhemp, Amaranthus rudis) were planted in pots containing Redi-Earth® planting medium (Scotts Company, 14111 Scottslawn Road, Marysville, Ohio 43041) comprising spaghnum peat moss, vermiculite, wetting agent and starter nutrients were treated with postemergence applications of test chemicals formulated in the same manner. Plants ranged in height from 2 to 18 cm for postemergence treatments (1- to 4-leaf stage). Treated plants and controls were maintained in a greenhouse for 14 to 21 days, after which time all species were compared to controls and visually evaluated. Plant response ratings, summarized in Table E, are based on a scale of 0 to 100 where 0 is no effect and 100 is complete control. A dash (-) response means no test result."}, "soybean": {"tested_on": "soybean", "assay": "Test E preemergence", "type": "in vivo, Glycine max", "conditions": "for Soybean plant response rating: scale 0 to 100 (0 no effect, 100 complete control)", "from_the_text": "as §2, §3"}, "velvetleaf": {"tested_on": "velvetleaf", "assay": "Test E preemergence", "type": "in vivo, Abutilon theophrasti", "conditions": "for Velvetleaf plant response rating: scale 0 to 100 (0 no effect, 100 complete control)", "from_the_text": "as §2, §3"}, "fall panicum": {"tested_on": "fall panicum", "assay": "Test E preemergence", "type": "in vivo, Panicum dichotomiflorum", "conditions": "for Panicum, Fall plant response rating: scale 0 to 100 (0 no effect, 100 complete control)", "how_it_was_run": "(§4)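 Response was scored visually on a 0-100 scale (100 = complete control) versus controls after 14 to 21 days in the greenhouse. Test chemicals, formulated with surfactant in a non-phytotoxic solvent mixture, had been applied preemergence to seeds in silt loam soil or postemergence to 1- to 4-leaf plants in potting medium.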"}, "johnsongrass": {"tested_on": "johnsongrass", "assay": "Test E preemergence", "type": "in vivo, Sorghum halepense", "conditions": "for Johnsongrass plant response rating: scale 0 to 100 (0 no effect, 100 complete control)", "from_the_text": "as §2, §3"}, "ragweed": {"tested_on": "ragweed", "assay": "Test E preemergence", "type": "in vivo, Ambrosia elatior", "conditions": "for Ragweed plant response rating: scale 0 to 100 (0 no effect, 100 complete control)", "how_it_was_run": "as §4"}, "dayflower": {"tested_on": "dayflower", "assay": "Test E preemergence", "type": "in vivo, Commelina virginica", "conditions": "for Dayflower, VA plant response rating: scale 0 to 100 (0 no effect, 100 complete control)", "how_it_was_run": "as §4"}, "field bindweed": {"tested_on": "field bindweed", "assay": "Test E preemergence", "type": "in vivo, Convolvulus arvensis", "conditions": "for Field Bindweed plant response rating: scale 0 to 100 (0 no effect, 100 complete control)", "how_it_was_run": "as §4"}, "yellow nutsedge": {"tested_on": "yellow nutsedge", "assay": "Test E preemergence", "type": "in vivo, Cyperus esculentus", "conditions": "for Nutsedge, Yellow plant response rating: scale 0 to 100 (0 no effect, 100 complete control)", "how_it_was_run": "as §4"}, "[1]": {"conditions": "125 g ai/ha, scale 0 to 100, 0 no effect, 100 complete control"}}}
{"smiles": "Fc1cnc(Oc2cccc(C(F)F)c2-n2cc(C(F)(F)F)cn2)nc1", "note": "[Compound 164]", "values": [{"measurement": "Plant response rating, Rice", "setting": "rice; 31 g ai/ha", "result": 0}, {"measurement": "Plant response rating, Rice", "setting": "rice; 62 g ai/ha", "result": 0}, {"measurement": "Plant response rating, Rice", "setting": "rice; 125 g ai/ha", "result": 0}, {"measurement": "Plant response rating, Rice", "setting": "rice; 250 g ai/ha", "result": 0}, {"measurement": "Plant response rating, Sedge, Umbrella", "setting": "sedge, umbrella; 31 g ai/ha", "result": 0}, {"measurement": "Plant response rating, Sedge, Umbrella", "setting": "sedge, umbrella; 62 g ai/ha", "result": 20}, {"measurement": "Plant response rating, Sedge, Umbrella", "setting": "sedge, umbrella; 125 g ai/ha", "result": 75}, {"measurement": "Plant response rating, Sedge, Umbrella", "setting": "sedge, umbrella; 250 g ai/ha", "result": 95}, {"measurement": "Plant response rating, Barnyardgrass", "setting": "barnyardgrass; 31 g ai/ha", "result": 0}, {"measurement": "Plant response rating, Barnyardgrass", "setting": "barnyardgrass; 62 g ai/ha", "result": 0}, {"measurement": "Plant response rating, Barnyardgrass", "setting": "barnyardgrass; 125 g ai/ha", "result": 0}, {"measurement": "Plant response rating, Barnyardgrass", "setting": "barnyardgrass; 250 g ai/ha", "result": 0}, {"measurement": "Corn plant response rating", "setting": "corn; 16 g ai/ha", "result": 0}, {"measurement": "Corn plant response rating", "setting": "corn; 31 g ai/ha", "result": 0}, {"measurement": "Corn plant response rating", "setting": "corn; 62 g ai/ha", "result": 0}, {"measurement": "Plant response rating, Corn", "setting": "corn; [1]", "result": 0}, {"measurement": "Soybean plant response rating", "setting": "soybean; 31 g ai/ha", "result": 0}, {"measurement": "Soybean plant response rating", "setting": "soybean; 62 g ai/ha", "result": 15}, {"measurement": "Plant response rating, Soybean", "setting": "soybean; [1]", "result": 70}, {"measurement": "Velvetleaf plant response rating", "setting": "velvetleaf; 31 g ai/ha", "result": 50}, {"measurement": "Velvetleaf plant response rating", "setting": "velvetleaf; 62 g ai/ha", "result": 100}, {"measurement": "Plant response rating, Velvetleaf", "setting": "velvetleaf; [1]", "result": 100}, {"measurement": "Panicum, Fall plant response rating", "setting": "fall panicum; 31 g ai/ha", "result": 0}, {"measurement": "Panicum, Fall plant response rating", "setting": "fall panicum; 62 g ai/ha", "result": 30}, {"measurement": "Plant response rating, Panicum, Fall", "setting": "fall panicum; [1]", "result": 98}, {"measurement": "Johnsongrass plant response rating", "setting": "johnsongrass; 31 g ai/ha", "result": 0}, {"measurement": "Johnsongrass plant response rating", "setting": "johnsongrass; 62 g ai/ha", "result": 10}, {"measurement": "Plant response rating, Johnsongrass", "setting": "johnsongrass; [1]", "result": 70}, {"measurement": "Ragweed plant response rating", "setting": "ragweed; 31 g ai/ha", "result": 0}, {"measurement": "Ragweed plant response rating", "setting": "ragweed; 62 g ai/ha", "result": 25}, {"measurement": "Plant response rating, Ragweed", "setting": "ragweed; [1]", "result": 60}, {"measurement": "Dayflower, VA plant response rating", "setting": "dayflower; 16 g ai/ha", "result": 0}, {"measurement": "Dayflower, VA plant response rating", "setting": "dayflower; 31 g ai/ha", "result": 20}, {"measurement": "Dayflower, VA plant response rating", "setting": "dayflower; 62 g ai/ha", "result": 65}, {"measurement": "Plant response rating, Dayflower, VA", "setting": "dayflower; [1]", "result": 90}, {"measurement": "Field Bindweed plant response rating", "setting": "field bindweed; 16 g ai/ha", "result": 0}, {"measurement": "Field Bindweed plant response rating", "setting": "field bindweed; 31 g ai/ha", "result": 0}, {"measurement": "Field Bindweed plant response rating", "setting": "field bindweed; 62 g ai/ha", "result": 30}, {"measurement": "Plant response rating, Field Bindweed", "setting": "field bindweed; [1]", "result": 50}, {"measurement": "Nutsedge, Yellow plant response rating", "setting": "yellow nutsedge; 31 g ai/ha", "result": 0}, {"measurement": "Nutsedge, Yellow plant response rating", "setting": "yellow nutsedge; 62 g ai/ha", "result": 0}, {"measurement": "Plant response rating, Nutsedge, Yellow", "setting": "yellow nutsedge; [1]", "result": 20}]}
